{"source": "patent US20200165194A1", "about": "“ADDITIVE COMPOSITION FOR CULTURE MEDIUM, ADDITIVE COMPOUND FOR CULTURE MEDIUM, AND METHOD FOR CULTURE OF CELLS OR TISSUE USING SAME” (NISSAN CHEMICAL CORPORATION, priority 2017, published 2020)", "assay_in_all_cases": "Various human cancer cells-1, 3D culture, WST-8 (Experimental Example 5)", "assay_type_in_all_cases": "cell-based", "key": {"[1]": {"test_system": "human colon adenocarcinoma-derived cell line HCT116", "settings": "4 days", "source_text": "(§1) Various human-derived cancer cells were precultured (single layer culture) in respective media shown below. Human uterus cervix cancer-derived cell line HeLa (manufactured by American Type Culture Collection (hereinafter indicated as ATCC), 10% fetal bovine serum (FBS, manufactured by Corning)-containing Dulbecco's Modified Eagle's Medium (hereinafter abbreviated as DMEM) (manufactured by Wako Pure Chemical Industries, Ltd.)), human malignant melanoma-derived cell line A375 (manufactured by ATCC, 10% FBS-containing DMEM), human epithelial-like cell cancer-derived cell line A431 (manufactured by ATCC, 10% FBS and 1% MEM non-essential amino acid solution (MEM Non-Essential Amino Acids solution (hereinafter abbreviated as NEAA) (manufactured by Wako Pure Chemical Industries, Ltd.))-containing Eagle's Minimum Essential Medium (hereinafter abbreviated as EMEM) (manufactured by Wako Pure Chemical Industries, Ltd.)), human stomach adenocarcinoma-derived cell line AGS (manufactured by DS PHARMA BIO MEDICAL, 10% FBS-containing Ham's F-12 (manufactured by Wako Pure Chemical Industries, Ltd.)), human prostate cancer-derived cell line LNCaP clone FGC (manufactured by ATCC, 10% FBS-containing RPMI1640 (manufactured by Wako Pure Chemical Industries, Ltd.)), human colon adenocarcinoma-derived cell line HCT116 (manufactured by DS PHARMA BIO MEDICAL, 10% FBS-containing McCoy's 5A Medium (manufactured by Sigma-Aldrich)), human alveolar basal epithelial adenocarcinoma-derived cell line A549 (manufactured by DS PHARMA BIO MEDICAL, 10% FBS-containing DMEM), human prostate cancer-derived cell DU145 (manufactured by ATCC, 10% FBS-containing EMEM). The above-mentioned cells in the logarithmic growth phase were washed with PBS, a 0.25 w/v % trypsin-1 mmol/L EDTA (ethylenediaminetetraacetic acid) solution (manufactured by Wako Pure Chemical Industries, Ltd.) was added, and adherent cells were detached by incubating at 37° C. for 1-5 min. Each medium was added and the mixture was centrifuged. After resuspension in the same medium, each cell was recovered.\n(§2) The aforementioned various cells were suspended in respective deacylated gellan gum-containing or not containing media (deacylated gellan gum concentration was 0.015 w/v %, and 0.020 w/v % for RPMI1640 alone), and seeded in a 96 well low attachment U-bottom plate (manufactured by Corning, deacylated gellan gum-free medium), or a low attachment flat bottom plate (manufactured by Corning, deacylated gellan gum-containing medium) at a cell concentration of 1000-12000 cells/135 μL/well (all 3D culture). After static culture overnight in 37° C., 5% CO2 incubator, a DMSO solution of the compound to be used in the present invention was added to each medium at a final concentration of 5 μM or 10 μM. The amount of each compound solution to be added was 15 μL/well. As a control, a DMSO solution dissolved in a medium was added (DMSO final concentration 0.1%). After continuously culturing in an incubator at 37° C., 5% CO2 for 4 days, WST-8 solution (manufactured by DOJINDO LABORATORIES) was added at 15 μL/well, and the mixture was reacted in the same incubator for 1-2 hr. […] When compared with the compound no-addition (control), one showing a value of not more than 119% as -, one showing a value of not less than 120% as ◯, and one showing a value of not less than 150% as ⊚ are shown in the tenth table."}, "[2]": {"test_system": "human prostate cancer-derived cell DU145", "settings": "4 days; for viability at 5 µM / viability at 10 µM: Homo sapiens, DU-145, 96 h, read-out: number of viable cells, relative value to control (100%)", "source_text": "as §1, §2"}, "[3]": {"test_system": "human prostate cancer-derived cell line LNCaP clone FGC", "settings": "4 days", "source_text": "as §1, §2"}, "[4]": {"test_system": "human stomach adenocarcinoma-derived cell line AGS", "settings": "4 days; for viability at 5 µM / viability at 10 µM: Homo sapiens, 96 h, read-out: number of viable cells, relative value to control (100%)", "source_text": "as §1, §2"}, "[5]": {"settings": "low attachment U-bottom plate (gellan gum-free), 10 μM"}, "[6]": {"settings": "low attachment flat bottom plate (gellan gum medium), 5 μM"}, "[7]": {"settings": "low attachment flat bottom plate (gellan gum medium), 10 μM"}, "[8]": {"settings": "low attachment U-bottom plate (gellan gum-free), 5 μM"}}, "note": "Where two headings read alike, the source gives them in different places.", "data": [{"compound": "CCC(=NNC(=O)C(CC)Nc1ccccc1)c1ccc(O)c(C)c1O", "note": "(centres unmarked) [k-1:H-7]", "values": [{"measurement": "number of viable cells, relative value to control (100%)", "setting": "[1]; [5]", "result": "◯ (one showing a value of not less than 120% as ◯)"}, {"measurement": "number of viable cells, relative value to control (100%)", "setting": "[1]; [6]", "result": "◯ (one showing a value of not less than 120% as ◯)"}, {"measurement": "number of viable cells, relative value to control (100%)", "setting": "[1]; [7]", "result": "⊙"}, {"measurement": "number of viable cells, relative value to control (100%)", "setting": "[2]; [8]", "result": "◯ (one showing a value of not less than 120% as ◯)"}, {"measurement": "number of viable cells, relative value to control (100%)", "setting": "[2]; [5]", "result": "⊙"}, {"measurement": "number of viable cells, relative value to control (100%)", "setting": "[2]; [6]", "result": "⊙"}, {"measurement": "number of viable cells, relative value to control (100%)", "setting": "[2]; [7]", "result": "⊙"}, {"measurement": "number of viable cells, relative value to control (100%)", "setting": "[3]; [8]", "result": "⊙"}, {"measurement": "number of viable cells, relative value to control (100%)", "setting": "[3]; [5]", "result": "◯ (one showing a value of not less than 120% as ◯)"}, {"measurement": "number of viable cells, relative value to control (100%)", "setting": "[4]; [8]", "result": "◯ (one showing a value of not less than 120% as ◯)"}, {"measurement": "number of viable cells, relative value to control (100%)", "setting": "[4]; [5]", "result": "◯ (one showing a value of not less than 120% as ◯)"}, {"measurement": "number of viable cells, relative value to control (100%)", "setting": "[4]; [7]", "result": "◯ (one showing a value of not less than 120% as ◯)"}]}, {"compound": "CC/C(=N\\NC(=O)Nc1ccccc1)c1ccc(O)c(C)c1O", "note": "[k-1:H-10]", "values": [{"measurement": "viability at 5 µM", "setting": "[1]; Homo sapiens, HCT-116, 96 h, low attachment U-bottom plate (gellan gum-free), 5 μM, read-out: number of viable cells, relative value to control (100%)", "result": "< 119", "unit": "%"}, {"measurement": "viability at 10 µM", "setting": "[1]; Homo sapiens, HCT-116, 96 h, low attachment U-bottom plate (gellan gum-free), 10 μM, read-out: number of viable cells, relative value to control (100%)", "result": "< 119", "unit": "%"}, {"measurement": "viability at 5 µM", "setting": "[2]; [8]", "result": "120 to 150", "unit": "%"}, {"measurement": "viability at 10 µM", "setting": "[2]; [5]", "result": "< 119", "unit": "%"}, {"measurement": "viability at 5 µM", "setting": "[2]; [6]", "result": "< 119", "unit": "%"}, {"measurement": "viability at 10 µM", "setting": "[2]; [7]", "result": "120 to 150", "unit": "%"}, {"measurement": "viability at 5 µM", "setting": "[3]; Homo sapiens, LNCaP-Clone-FGC, 96 h, low attachment U-bottom plate (gellan gum-free), 5 μM, read-out: number of viable cells, relative value to control (100%)", "result": "120 to 150", "unit": "%"}, {"measurement": "viability at 5 µM", "setting": "[3]; Homo sapiens, LNCaP-Clone-FGC, 96 h, low attachment flat bottom plate (gellan gum medium), 5 μM, read-out: number of viable cells, relative value to control (100%)", "result": "< 119", "unit": "%"}, {"measurement": "viability at 10 µM", "setting": "[3]; Homo sapiens, LNCaP-Clone-FGC, 96 h, low attachment flat bottom plate (gellan gum medium), 10 μM, read-out: number of viable cells, relative value to control (100%)", "result": "< 119", "unit": "%"}, {"measurement": "number of viable cells, relative value to control (100%)", "setting": "[3]; [5]", "result": "⊙"}, {"measurement": "viability at 5 µM", "setting": "[4]; [8]", "result": "120 to 150", "unit": "%"}, {"measurement": "viability at 10 µM", "setting": "[4]; [5]", "result": "< 119", "unit": "%"}, {"measurement": "viability at 5 µM", "setting": "[4]; [6]", "result": "< 119", "unit": "%"}, {"measurement": "viability at 10 µM", "setting": "[4]; [7]", "result": "< 119", "unit": "%"}]}]}
